Legend:
[1] = target: T1, ERR1 (also known as ERR-α or ERR-1) (Homo sapiens, UniProt P11474); assay: TR-FRET assay (disruption of co-activator peptide binding); type: biochemical; details: 6His-tagged ERR1 LBD, GST-hSRC2 co-activator polypeptide; average of 3 independent experiments
T1 sequence (P11474 193-421 limits assumed): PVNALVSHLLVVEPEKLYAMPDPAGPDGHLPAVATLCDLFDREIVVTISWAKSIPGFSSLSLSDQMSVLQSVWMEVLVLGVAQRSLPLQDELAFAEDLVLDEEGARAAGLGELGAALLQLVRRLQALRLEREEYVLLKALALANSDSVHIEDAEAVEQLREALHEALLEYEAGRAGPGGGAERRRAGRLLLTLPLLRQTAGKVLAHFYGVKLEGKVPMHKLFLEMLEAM
Procedure, shortened: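 His6-ERR1 LBD (6 nM) with GST-SRC-2 peptide (6 nM), anti-GST Eu cryptate (30 nM) and anti-His XL665 (7.5 nM) in Tris pH 8/KCl/DTT/BSA buffer, equilibrated 4-18 h at 25 °C. Ex 340, em 615/665 nm; hyperbolic dose-response fit, mean of 3 experiments.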

Zucker fa/fa male rats = assay: Zucker fa/fa Rat Model Assay; type: in vivo; details: dosed orally once a day for 4 days, blood collected at day 5
Source text: Zucker fa/fa is a monogenic model of frank diabetes due to a mutation on the fa gene truncating the leptin receptor and preventing its interaction with its peptide hormone. This mutation results in a hyperphagic phenotype and the rodent develops obesity, hyperlipidemia, fasting hyperglycemia and insulin resistance. Zucker fa/fa male rats were received at four weeks of age and allowed to acclimate for one week. At five weeks of age the animals were single housed in cages in a temperature-controlled room with 12-hour light/dark cycle. The rats were allowed ad libitum access to water and food and throughout the study were maintained on a Purina 5008 diet. Animals were sorted based primarily on fed insulin levels and circulating triglycerides. Animals were dosed orally once a day in the morning for 4 days. The vehicle used was either 20% HPβCD (Hydroxypropyl Beta Cyclodextrin) or 15% Vitamin E/30% PEG-400 (Polyethylene Glycol 400). Fed insulin and triglycerides were measured using blood collected from the tail vein at day 5. Serum plasma samples were prepared by centrifugation in EDTA (Ethylenediaminetetraacetic acid) containing tubes, transferred into 96 well plates and stored at −80° C.

SMILES | EC50 [1] | % Lowering Fed Insulin Levels (Zucker fa/fa male rats) | % Lowering Fed Triglyceride Levels (Zucker fa/fa male rats)
O=C1N=C(N2CC(C(=O)O)C2)S/C1=C\c1ccc2c(cnn2Cc2ccc(C(F)(F)F)cc2C(F)(F)F)c1 [Example 35, 1-{5-[1-(2,4-Bis-trifluoromethyl-benzyl)-1H-indazol-5-ylmethylene]-4-oxo-4,5-dihydro-thiazol-2-yl}-azetidine-3-carboxylic acid] | 14.3 nM | 45% | 20%
CN(C)C(=O)CN1CCN(C2=NC(=O)/C(=C/c3ccc4c(cnn4Cc4ccc(Cl)cc4C(F)(F)F)c3)S2)CC1 [Example 72, 2-(4-{5-[1-(4-Chloro-2-trifluoromethyl-benzyl)-1H-indazol-5-ylmethylene]-4-oxo-4,5-dihydro-thiazol-2-yl}-piperazin-1-yl)-N,N-dimethyl-acetamide] | 13.3 nM | 62% | 57%
O=C1N=C(N2C[C@@H]3C[C@H]2CN3CCO)S/C1=C\c1ccc2c(cnn2Cc2ccc(C(F)(F)F)cc2C(F)(F)F)c1 [Example 71, 5-[1-(2,4-Bis-trifluoromethyl-benzyl)-1H-indazol-5-ylmethylene]-2-[5-(2-hydroxy-ethyl)-2S,5S-diaza-bicyclo[2.2.1]hept-2-yl]-thiazol-4-one] | 16.4 nM | 37% | 25%
CN1CCN(C2=NC(=O)/C(=C/c3ccc4c(c3)c(C#N)nn4Cc3ccc(Cl)cc3C(F)(F)F)S2)CC1 [Example 223, 1-[4-Chloro-2-(trifluoromethyl)benzyl]-5-{[2-(4-methylpiperazin-1-yl)-4-oxo-1,3-thiazol-5(4H)-ylidene]methyl}-1H-indazole-3-carbonitrile] | 13.4 nM | 77% | 85%
O=C1N=C(N2CCN[C@@H](CO)C2)S/C1=C\c1ccc2c(c1)c(Cl)nn2Cc1ccc(C(F)(F)F)cc1C(F)(F)F [Example 186, 5-[1-(2,4-Bis-trifluoromethyl-benzyl)-3-chloro-1H-indazol-5-ylmethylene]-2-(3-(R)-hydroxymethyl-piperazin-1-yl)-thiazol-4-one] | 5 nM | 75% | 56%
O=C1N=C(N2CCC[C@H]2CN2CCCC2)S/C1=C\c1ccc2c(cnn2Cc2ccc(Cl)cc2C(F)(F)F)c1 [Example 64, 5-[1-(4-Chloro-2-trifluoromethyl-benzyl)-1H-indazol-5-ylmethylene]-2-(S)-(2-pyrrolidin-1-ylmethyl-pyrrolidin-1-yl)-thiazol-4-one] | 25 nM | 46% | 51%
COCCN1CCN(C2=NC(=O)/C(=C/c3ccc4c(cnn4Cc4ccc(Cl)cc4C(F)(F)F)c3)S2)CC1 [Example 56, 5-[1-(4-Chloro-2-trifluoromethyl-benzyl)-1H-indazol-5-ylmethylene]-2-[4-(2-methoxy-ethyl)-piperazin-1-yl]-thiazol-4-one] | 15.7 nM | 70% | 68%
O=C1N=C(N2CCOC[C@H]2CO)S/C1=C\c1ccc2c(cnn2Cc2ccc(Cl)cc2C(F)(F)F)c1 [Example 142, 5-[1-(4-Chloro-2-trifluoromethyl-benzyl)-1H-indazol-5-ylmethylene]-2-(3(R)-hydroxymethyl-morpholin-4-yl)-thiazol-4-one] | 20 nM | 63% | 55%

Source: US8399681B2, “Substituted aminothiazolone indazoles as estrogen related receptor-alpha modulators” (Janssen Pharmaceutica NV, priority 2009, dated 2013)
